Laboratory results as given in publication PMC8765437, “GSK3640254 Is a Novel HIV-1 Maturation Inhibitor with an Optimized Virology Profile” (Antimicrobial Agents and Chemotherapy, 2022).
Where two headings read alike, the source gives them in different places.

System: NLRepRlucP373S viruses containing Gag SDMs or gag/pr genes from clinical isolates
Experiment: Multiple-cycle replication assay, NLRepRluc reporter viruses in MT-2 cells, luciferase endpoint
Assay type: cell-based, HIV-1
Text: Multiple-cycle assays using recombinant viruses or clinical isolates were used to assess MI antiviral activity as described previously ([10]). pNLRepRlucP373S (the P373S change is in the Gag gene and converts an outlier polymorphism in the NL4-3 gene to the prevalent amino acid in the population) plasmids containing SDMs in Gag or gag/pr regions from clinical isolates were transfected into HEK 293T cells, and the supernatant containing recombinant virus was harvested after 4 to 5 days. Virus was used to infect MT-2 cells in the presence of a 3-fold serially diluted compound at a final dimethyl sulfoxide (DMSO) concentration of 1%. The inocula of the reporter viruses were determined based on the luciferase activity detected on day 4 postinfection. The MOI (ratio of infectious virions to target cells) of reporter-free laboratory strains and clinical isolates was 0.005, as derived from a tissue culture infectious dose study. Clinical isolates or reporter-free viruses were examined in the reporter CEM-NKR-CCR5-Luc cells or PBMCs at MOIs ranging from 0.005 to 0.01. Each infection started with a drug-free preincubation of the cell-virus mixtures, performed at 37°C and 5% CO2 for either 1 h at 2 times the final cell density (reporter viruses) or 1 h (reporter-free laboratory strains) or 3 h (clinical isolates) using cell pellets in 0.5 mL of medium. After preincubation, cell-virus mixtures were added to compound-containing 96-well plates for a final cell density of either 10,000 (MT-2 cells for reporter viruses), 20,000 (MT-2 and PM1 cells for reporter-free laboratory strains), 200,000 (PBMCs for clinical isolates), or 500,000 (CEM-NKR-CCR5-Luc for reporter-free laboratory strains) cells per well. The CEM-NKR-CCR5-Luc cell assay was performed in the presence of Polybrene (10 μg/mL). Virus growth was determined on days 4 to 5 postinfection for reporter variants or days 5 to 11 for the other viruses. The reporter viruses were detected by a luciferase assay according to manufacturer protocols (Brite-Glo luciferase kit [Promega] for CEM-NKR-CCR5-Luc cells and Dual-Luciferase Reporter 1000 assay system [Promega] for the other cells), and luminescence was detected on a Wallac Trilux. The growth of clinical isolates in PBMCs was quantitated by reverse transcriptase activity in a 96-well scintillation proximity assay (SPA). Twenty microliters of culture supernatants was mixed with 40 μL of reaction cocktail (62.5 mM Tris-HCl [pH 7.8], 100 mM KCl, 0.0625% NP-40, 2.5 mM dithiothreitol [DTT], 6.25 mM MgCl2, 1 mM EGTA, 6.25 μg/mL of poly rA, 2.5 μg/mL of streptavidin SPA beads prebound with biotinylated-dT12-18, and 1 μCi of [^3H]TTP). Mixtures were incubated at 37°C for ∼3 h and quenched with 100 μl of 0.25 M EDTA per well. Luminescence was detected on a Wallac Trilux programmed for tritium counting with SPA beads in opaque plates. The growth of the reporter-free laboratory M-tropic strains and clinical isolates was monitored by a p24 enzyme-linked immunosorbent assay (ELISA; PerkinElmer Life Sciences, Waltham, MA) performed on culture supernatants. […] A 1:1,000 dilution of cell supernatant in PBS was generally observed to fall in the dynamic range of the endpoint signal.
Maximal percent inhibition values were calculated as MPI = 100 – (mean signals at the 2 highest concentrations of compound/mean signal of 2 no-drug control wells) × 100.

[1] = Human immunodeficiency virus 1, MT2, ΔV370, 10% FBS

C=C(C)[C@@H]1CC[C@]2(NCCN3CCS(=O)(=O)CC3)CC[C@]3(C)[C@H](CC[C@@H]4[C@@]5(C)CC=C(C6=CC[C@@](CF)(C(=O)O)CC6)C(C)(C)[C@@H]5CC[C@]43C)[C@@H]12 [GSK’254]
EC90 (Human immunodeficiency virus 1, MT2, read-out: PBA EC90, subtype B gag/pr 93US155 (V370T)): 14 nM
EC90 (Human immunodeficiency virus 1, MT2, read-out: PBA EC90, subtype B gag/pr 411-1-C (Wild-type)): 7 nM
EC90 (Human immunodeficiency virus 1, MT2, read-out: PBA EC90, subtype B gag/pr 220162 (Wild-type)): 40 nM
EC90 (Human immunodeficiency virus 1, MT2, read-out: PBA EC90, subtype B gag/pr 400024 (V370M)): 10 nM
EC90 (Human immunodeficiency virus 1, MT2, read-out: PBA EC90, subtype B gag/pr 400051 (V370A)): 21 nM
EC90 (Human immunodeficiency virus 1, MT2, read-out: PBA EC90, subtype B gag/pr 1000038 (V362I/V370A)): 43 nM
EC90 (Human immunodeficiency virus 1, MT2, read-out: PBA EC90, subtype B gag/pr 1000156 (V362I)): 63 nM
EC90 (Human immunodeficiency virus 1, MT2, read-out: PBA EC90, subtype B gag/pr 1900120 (V370M)): 11 nM
EC90 (Human immunodeficiency virus 1, MT2, read-out: PBA EC90, subtype B gag/pr 1900140 (V362I)): 47 nM
EC90 (Human immunodeficiency virus 1, MT2, read-out: PBA EC90, subtype C gag/pr 93MW690): 17 nM
EC90 (Human immunodeficiency virus 1, MT2, read-out: PBA EC90, subtype C gag/pr 97ZA003): 24 nM
EC90 (Human immunodeficiency virus 1, MT2, read-out: PBA EC90, subtype C gag/pr 98CN009): 27 nM
EC90 (Human immunodeficiency virus 1, MT2, read-out: PBA EC90, subtype C gag/pr 98IN026): 16 nM
EC90 (Human immunodeficiency virus 1, MT2, read-out: PBA EC90, subtype C gag/pr 11657-3): 37 nM
EC90 (Human immunodeficiency virus 1, MT2, read-out: PBA EC90, subtype C gag/pr 20635-4): 40 nM
EC90 (Human immunodeficiency virus 1, MT2, read-out: PBA EC90, subtype C gag/pr 1700141): 19 nM
EC90 (Human immunodeficiency virus 1, MT2, read-out: PBA EC90, subtype C gag/pr 1900543): 24 nM
EC90 (Human immunodeficiency virus 1, MT2, read-out: mean PBA EC90, 44-member library of genotyped chimeric and SDM viruses, protein-binding adjusted): 33 nM
EC50 (Human immunodeficiency virus 1, MT2, subtype B gag/pr 4NRR (Wild-type)): 1 nM
EC50 (Human immunodeficiency virus 1, MT2, subtype B gag/pr 28-MDR (Wild-type)): 1 nM
EC50 (Human immunodeficiency virus 1, MT2, subtype B gag/pr 92BR014 (V370M)): 1 nM
EC50 (Human immunodeficiency virus 1, MT2, subtype B gag/pr 92BR018 (V, QAΔ)): 1 nM
EC50 (Human immunodeficiency virus 1, MT2, subtype B gag/pr 92TH014 (V362I)): 1 nM
EC50 (Human immunodeficiency virus 1, MT2, subtype B gag/pr 92TH026 (V362I)): 4 nM
EC50 (Human immunodeficiency virus 1, MT2, subtype B gag/pr 92US072 (V362I)): 1 nM
EC50 (Human immunodeficiency virus 1, MT2, subtype B gag/pr 92US729 (Wild-type)): 1 nM
EC50 (Human immunodeficiency virus 1, MT2, subtype B gag/pr 93BR008 (V362I)): 2 nM
EC50 (Human immunodeficiency virus 1, MT2, subtype B gag/pr 93BR009 (V370M)): 2 nM
EC50 (Human immunodeficiency virus 1, MT2, subtype B gag/pr 93BR017 (V, QAΔ)): 2 nM
EC50 (Human immunodeficiency virus 1, MT2, subtype B gag/pr 93BR022 (V, QAΔ)): 3 nM
EC50 (Human immunodeficiency virus 1, MT2, subtype B gag/pr 93TH0647 (V362I)): 2 nM
EC50 (Human immunodeficiency virus 1, MT2, subtype B gag/pr 93US141 (V362I)): 2 nM
EC50 (Human immunodeficiency virus 1, MT2, subtype B gag/pr 93US155 (V370T)): 1 nM
EC50 (Human immunodeficiency virus 1, MT2, subtype B gag/pr 411-1-C (Wild-type)): 0.5 nM
EC50 (Human immunodeficiency virus 1, MT2, subtype B gag/pr 220162 (Wild-type)): 2 nM
EC50 (Human immunodeficiency virus 1, MT2, subtype B gag/pr 400024 (V370M)): 1 nM
EC50 (Human immunodeficiency virus 1, MT2, subtype B gag/pr 400051 (V370A)): 1 nM
EC50 (Human immunodeficiency virus 1, MT2, subtype B gag/pr 1000038 (V362I/V370A)): 3 nM
EC50 (Human immunodeficiency virus 1, MT2, subtype B gag/pr 1000156 (V362I)): 4 nM
EC50 (Human immunodeficiency virus 1, MT2, subtype B gag/pr 1900120 (V370M)): 1 nM
EC50 (Human immunodeficiency virus 1, MT2, subtype B gag/pr 1900140 (V362I)): 1 nM
EC50 (Human immunodeficiency virus 1, MT2, subtype C gag/pr 93MW690): 1 nM
EC50 (Human immunodeficiency virus 1, MT2, subtype C gag/pr 97ZA003): 1 nM
EC50 (Human immunodeficiency virus 1, MT2, subtype C gag/pr 98CN009): 1 nM
EC50 (Human immunodeficiency virus 1, MT2, subtype C gag/pr 98IN026): 1 nM
EC50 (Human immunodeficiency virus 1, MT2, subtype C gag/pr 10215-6): 1 nM
EC50 (Human immunodeficiency virus 1, MT2, subtype C gag/pr 11657-3): 2 nM
EC50 (Human immunodeficiency virus 1, MT2, subtype C gag/pr 20635-4): 1 nM
EC50 (Human immunodeficiency virus 1, MT2, subtype C gag/pr 20706-3): 1 nM
EC50 (Human immunodeficiency virus 1, MT2, subtype C gag/pr 1300495): 1 nM
EC50 (Human immunodeficiency virus 1, MT2, subtype C gag/pr 1700141): 2 nM
EC50 (Human immunodeficiency virus 1, MT2, subtype C gag/pr 1900543): 1 nM
EC50 [1]: 4.4 nM
EC90 [1]: 7.8 nM
MPI (SDM A326T/V362I/V370A): 69%
MPI (SDM A364V): 70%
MPI (SDM R361K/V362I/L363M): 91%
MPI (SDM T332S/V362I/prR41G): 97%
MPI (SDM V362I/V370A): 91%
MPI (SDM V370A): 97%
MPI (SDM Wild type): 98%
MPI (SDM ΔV370): 96%
